Reference: the NIST ThermoML archive (doi:10.1021/je050147b)
Where “and” joins values, the source holds several entries; their conditions need not be identical. Identical values can stand only once. ± gives the expanded uncertainty stated by the source.

Settings: Liquid; for mass density: 101.33 kPa

## CCCCn1cc[n+](C)c1.F[P-](F)(F)(F)(F)F [1-butyl-3-methylimidazolium hexafluorophosphate]
273.1 K
  mass density: 1388.85 ± 4.7 kg/m3
273.15 K, 100 kPa
  viscosity: 1717 ± 820 mPa·s
278.1 K
  mass density: 1384.55 ± 4.7 kg/m3
278.15 K, 100 kPa
  viscosity: 1119 ± 470 mPa·s
283.1 K
  mass density: 1380.27 ± 4.7 kg/m3
283.15 K, 100 kPa
  viscosity: 755 ± 280 mPa·s
288.15 K, 100 kPa
  viscosity: 521 ± 160 mPa·s
288.15 K
  mass density: 1375.99 ± 4.6 kg/m3
293.15 K, 100 kPa
  viscosity: 369 ± 100 mPa·s
293.15 K
  mass density: 1371.72 ± 4.6 kg/m3
298.15 K, 100 kPa
  viscosity: 271 ± 62 mPa·s and 273 ± 63 mPa·s
298.15 K
  mass density: 1367.45 ± 4.6 kg/m3
298.15 K, 12100 kPa
  viscosity: 329 ± 84 mPa·s
298.15 K, 24700 kPa
  viscosity: 391 ± 110 mPa·s
298.15 K, 25700 kPa
  viscosity: 390 ± 110 mPa·s
298.15 K, 50600 kPa
  viscosity: 546 ± 180 mPa·s
298.15 K, 75800 kPa
  viscosity: 761 ± 280 mPa·s
298.15 K, 100300 kPa
  viscosity: 1047 ± 430 mPa·s
298.15 K, 125100 kPa
  viscosity: 1432 ± 650 mPa·s
298.15 K, 125600 kPa
  viscosity: 1461 ± 660 mPa·s
298.15 K, 150300 kPa
  viscosity: 1995 ± 990 mPa·s
298.15 K, 174100 kPa
  viscosity: 2694 mPa·s
303.15 K, 100 kPa
  viscosity: 202 ± 38 mPa·s
303.15 K
  mass density: 1363.19 ± 4.6 kg/m3
308.15 K, 100 kPa
  viscosity: 158.4 ± 25 mPa·s
308.15 K, 900 kPa
  viscosity: 159.7 ± 25 mPa·s
308.15 K, 9600 kPa
  viscosity: 179.1 ± 31 mPa·s
308.15 K, 25800 kPa
  viscosity: 221 ± 45 mPa·s
308.15 K, 50300 kPa
  viscosity: 302 ± 73 mPa·s
308.15 K, 75600 kPa
  viscosity: 412 ± 120 mPa·s
308.15 K, 100300 kPa
  viscosity: 557 ± 180 mPa·s
308.15 K, 125200 kPa
  viscosity: 750 ± 270 mPa·s
308.15 K, 140600 kPa
  viscosity: 898 ± 350 mPa·s
308.15 K, 151000 kPa
  viscosity: 1016 ± 410 mPa·s
313.15 K, 100 kPa
  viscosity: 120 ± 15 mPa·s
313.15 K
  mass density: 1354.95 ± 4.5 kg/m3 and 1354.96 ± 4.5 kg/m3
323.15 K, 100 kPa
  viscosity: 73.6 ± 6.3 mPa·s and 74.1 ± 6.3 mPa·s and 74.9 ± 6.5 mPa·s
323.15 K
  mass density: 1346.75 ± 4.5 kg/m3
323.15 K, 1300 kPa
  viscosity: 74.9 ± 6.2 mPa·s
323.15 K, 3100 kPa
  viscosity: 76.9 ± 6.5 mPa·s
323.15 K, 5600 kPa
  viscosity: 78.2 ± 6.7 mPa·s
323.15 K, 10700 kPa
  viscosity: 82.7 ± 7.4 mPa·s
323.15 K, 25800 kPa
  viscosity: 98.9 ± 10 mPa·s
323.15 K, 50800 kPa
  viscosity: 127.8 ± 17 mPa·s
323.15 K, 75800 kPa
  viscosity: 173.5 ± 29 mPa·s
323.15 K, 100700 kPa
  viscosity: 224 ± 46 mPa·s
323.15 K, 125500 kPa
  viscosity: 281 ± 66 mPa·s
323.15 K, 150400 kPa
  viscosity: 371 ± 100 mPa·s
323.15 K, 175200 kPa
  viscosity: 481 ± 150 mPa·s
323.15 K, 200000 kPa
  viscosity: 616 ± 210 mPa·s
323.15 K, 224600 kPa
  viscosity: 784 ± 290 mPa·s
323.15 K, 249300 kPa
  viscosity: 995 ± 400 mPa·s
333.15 K, 100 kPa
  viscosity: 49.5 ± 3.5 mPa·s [middle of 4 runs]
333.15 K
  mass density: 1338.58 ± 4.4 kg/m3
333.15 K, 10700 kPa
  viscosity: 55.8 ± 3.7 mPa·s
333.15 K, 26200 kPa
  viscosity: 66 ± 4.9 mPa·s
333.15 K, 51100 kPa
  viscosity: 85.6 ± 7.9 mPa·s
333.15 K, 75700 kPa
  viscosity: 109.8 ± 13 mPa·s
333.15 K, 91100 kPa
  viscosity: 128 ± 17 mPa·s
333.15 K, 100100 kPa
  viscosity: 139.4 ± 20 mPa·s
343.15 K, 100 kPa
  viscosity: 35.1 ± 2.5 mPa·s and 34.7 ± 2.5 mPa·s and 34.6 ± 2.5 mPa·s
343.15 K
  mass density: 1330.45 ± 4.4 kg/m3
343.15 K, 5500 kPa
  viscosity: 37.2 ± 2.6 mPa·s
343.15 K, 10600 kPa
  viscosity: 39.2 ± 2.8 mPa·s
343.15 K, 25700 kPa
  viscosity: 45.6 ± 3.2 mPa·s
343.15 K, 50600 kPa
  viscosity: 58 ± 3.9 mPa·s
343.15 K, 75600 kPa
  viscosity: 73.7 ± 5.9 mPa·s
343.15 K, 100600 kPa
  viscosity: 92.9 ± 9.3 mPa·s
343.15 K, 125400 kPa
  viscosity: 116.2 ± 14 mPa·s
343.15 K, 140200 kPa
  viscosity: 132.6 ± 18 mPa·s
343.15 K, 149900 kPa
  viscosity: 144.4 ± 21 mPa·s
343.15 K, 172900 kPa
  viscosity: 176.1 ± 30 mPa·s
353.15 K, 100 kPa
  viscosity: 25.5 ± 1.8 mPa·s
353.15 K
  mass density: 1322.38 ± 4.3 kg/m3
363.15 K
  mass density: 1314.36 ± 4.3 kg/m3
